The text below walks through data of patent publication US12697402B2, “Detection of colonic neoplasia in vivo using near-infrared peptide targeted against overexpressed cMet” (THE REGENTS OF THE UNIVERSITY OF MICHIGAN, priority 2019, dated 2026).

One data set addresses cMet (HT29 cells) (Homo sapiens, UniProt P08581). Put plainly: biochemical.
A further data set relates to CCD841 cells. Kind of data set: Alamar blue assay, CCD841. The format is cell-based, human. As to conditions: normal colon cells; 48 hours; HGF 25 ng/mL; peptide 5 or 100 μM. The method, then:
(§1) An alamar blue assay was performed using HT29 and CCD841 cells. After culturing in serum free media overnight, about 3×10^3 cells were seeded per well in serum free media in 96 well plates at a final volume of 100 μL per well. […] Alamar blue reagent (10 μL) was added in amounts equal to 10% of the volume in the well, and incubated at 37° C. for 4 hours. Fluorescence with excitation at λex=530-560 nm, and emission at λex=590 nm, was measured.

The subject of data set [1] is phosphorylation of cMet, AKT and ERK1/2. Put plainly: Effect of peptide on cell signaling (Western blot). It is filed as cell-based, human. Particulars: HT29 cells; 10, 30, 120 min; HGF 25 ng/mL; peptide 5 or 100 μM. On the procedure: HT29 cells were treated with serum-free medium overnight for starvation before incubation with hHGF (hHGF, 294-HG-005, R&D) or peptides. Recombinant Human HGF Protein was added to HT29 cells at concentrations of 25 ng/ml for 10, 30, or 120 min in separate wells. QQT*-Cy5.5 and TLQ*-Cy5.5 were added at concentrations of 5 or 100 μM for 10, 30, and 120 min. Peptides were added at concentrations of 5 and 100 μM for 10, 30, or 120 min. Cells were then washed with 1×PBS and lysed with Pierce RIPA buffer containing Halt Phosphatase Inhibitor Cocktail (Thermo Fisher) and Halt Protease Inhibitor Cocktail (Thermo Fisher). Protein contents were quantified by Bicinchoninic Acid Assay (BCA). Anti-cMet antibody (Cell Signaling, #8198), phospho-cMet (Tyr1234/1235) antibody (Cell Signaling, #3077), anti-AKT antibody (Cell Signaling, #4691), anti-phospho-AKT antibody (Cell Signaling, #9271), anti-ERK1/2 antibody (Abcam, #ab17942), anti-phospho-ERK1/2 antibody (Abcam, #ab50011), and anti-tubulin antibody (Invitrogen, #32-2600) were used per manufacturer's instructions.

The next data set has as its system HT29 cells. Kind of data set: Alamar blue assay, HT29. It is filed as cell-based, human. As to conditions: 48 hours; HGF 25 ng/mL; peptide 5 or 100 μM. The method, then: as §1
Background: Alamar Blue is a resazurin reagent that responds to reducing activity.

Entries after “also recorded” stand apart in the source; their conditions may differ. Peptide text beside a SMILES is read from it. * marks the point of attachment. X1 = CN1/C(=C/C=C/C=C/C2=[N+](CCCCCC(=O)*)c3ccc4ccccc4c3C2(C)C)C(C)(C)c2c1ccc1ccccc21

Chain of cMet (HT29 cells) (P08581 25-1390): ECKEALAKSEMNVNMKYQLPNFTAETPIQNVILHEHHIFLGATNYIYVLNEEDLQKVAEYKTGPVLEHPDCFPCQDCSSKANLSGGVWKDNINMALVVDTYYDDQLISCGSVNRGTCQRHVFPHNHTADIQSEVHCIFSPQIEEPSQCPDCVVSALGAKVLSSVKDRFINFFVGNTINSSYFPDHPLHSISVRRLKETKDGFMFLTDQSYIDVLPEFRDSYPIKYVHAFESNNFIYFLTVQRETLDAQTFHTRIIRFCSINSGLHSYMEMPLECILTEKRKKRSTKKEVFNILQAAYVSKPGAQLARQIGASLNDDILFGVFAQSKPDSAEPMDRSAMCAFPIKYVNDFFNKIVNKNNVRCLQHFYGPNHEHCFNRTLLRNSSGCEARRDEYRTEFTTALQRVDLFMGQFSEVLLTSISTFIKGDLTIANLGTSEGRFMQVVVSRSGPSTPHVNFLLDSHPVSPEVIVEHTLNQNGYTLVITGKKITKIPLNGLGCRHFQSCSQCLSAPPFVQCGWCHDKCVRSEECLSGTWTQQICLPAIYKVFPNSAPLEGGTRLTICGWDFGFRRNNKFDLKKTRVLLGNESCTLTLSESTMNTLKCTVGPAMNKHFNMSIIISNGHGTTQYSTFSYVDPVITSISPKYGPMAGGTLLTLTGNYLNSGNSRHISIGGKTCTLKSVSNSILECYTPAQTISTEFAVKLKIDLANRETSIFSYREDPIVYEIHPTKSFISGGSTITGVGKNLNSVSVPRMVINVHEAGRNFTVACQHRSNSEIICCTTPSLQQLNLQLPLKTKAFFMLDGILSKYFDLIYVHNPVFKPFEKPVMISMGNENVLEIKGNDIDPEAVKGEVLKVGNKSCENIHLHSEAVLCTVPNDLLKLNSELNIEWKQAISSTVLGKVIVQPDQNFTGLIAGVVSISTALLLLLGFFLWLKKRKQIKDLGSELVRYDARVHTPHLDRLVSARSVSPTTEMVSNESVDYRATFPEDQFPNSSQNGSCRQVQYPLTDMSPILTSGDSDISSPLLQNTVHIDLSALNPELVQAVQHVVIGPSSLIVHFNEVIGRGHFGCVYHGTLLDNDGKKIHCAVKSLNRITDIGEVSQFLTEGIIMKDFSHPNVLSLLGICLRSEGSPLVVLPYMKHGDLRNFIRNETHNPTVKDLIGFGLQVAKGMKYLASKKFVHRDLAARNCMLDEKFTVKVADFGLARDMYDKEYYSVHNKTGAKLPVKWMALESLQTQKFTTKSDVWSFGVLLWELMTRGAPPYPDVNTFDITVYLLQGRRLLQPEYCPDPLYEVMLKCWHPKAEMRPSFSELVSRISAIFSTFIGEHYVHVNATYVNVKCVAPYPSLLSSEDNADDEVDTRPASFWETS
Method for cMet (HT29 cells): Cells then were washed 3 times with 1×PBS containing 0.5% BSA to remove unbound peptides before analysis with flow cytometry (FACS Canto; BD Biosciences, San Jose, CA). Sample means were used to calculate the equilibrium dissociation constant KD using nonlinear regression analysis with Origin 6.1 data analysis software (OriginLab, Northampton, MA). KD=1/KA was calculated by performing a least-squares fit of the data to the nonlinear equation I[X]=(I0+Imaxka[X])/(I0+ka[X]). I0 and Imax are the initial and maximum fluorescence intensities, corresponding to no peptide and peptide saturation, respectively, and [X] represents the concentration of the bound peptide.^34

`CC(C)C[C@H](NC(=O)[C@H](CO)NC(=O)[C@H](Cc1c[nH]c2ccccc12)NC(=O)[C@H](CC(N)=O)NC(=O)[C@@H](NC(=O)[C@H](CCC(N)=O)NC(=O)[C@@H](N)CCC(N)=O)[C@@H](C)O)C(=O)NCC(=O)NCC(=O)NCC(=O)N[C@@H](CO)C(=O)N[C@@H](CCCCNC(=O)CCCCC[N+]1=C(/C=C/C=C/C=C2/N(C)c3ccc4ccccc4c3C2(C)C)C(C)(C)c2c1ccc1ccccc21)C(N)=O` [QQT*-Cy5.5] (H-QQTNWSLGGGSK(X1)-NH2) had a Kd on cMet (HT29 cells) of 57 nM. For the same molecule, in the data set with CCD841 cells, the “growth of CCD841 cells” value was “no effect on growth; also recorded: No change”.

Regarding “HGF: recombinant human hepatocyte growth factor, known ligand for cMet, positive control”, the “phosphorylation of cMet and downstream AKT and ERK1/2” value in data set [1] is on record as “strong phosphorylation activity; also recorded: induced phosphorylation”. Also, the “growth of HT29 cells” value in the data set with HT29 cells is on record as “increased growth”.

In general, Kd refers to the free concentration of one partner at which half of the binding sites on the other are occupied at equilibrium, for simple one-to-one binding. Read a low Kd as a tighter complex.
